Measurements from patent publication US4476122A, “Alkyloximes of 7-amino-thiazolyl-acetamido-cephalosporanic acids” (Roussel Uclaf, priority 1976, dated 1984).
In brackets after ≈: the same amount, converted by molar mass. Where two headings read alike, the source gives them in different places.

Columns and labels:
[1] = test system: Proteus mirabilis (indol-) A 235; assay: MIC, liquid medium dilution; type: cell-based
Experimental: (§1) The method used was a dilution of a liquid medium where a series of tubes received the same quantity of a sterile nutritive media and increasing doses of the test compounds were placed therein. Then each tube was seeded with a bacterial strain and was incubated for 24 or 48 hours at 37° C. in an oven. The increasing inhibition was determined by transillumination to determine the minimum inhibiting concentration (MIC in μg/ml) and the results are reported in the following Tables.

[2] = test system: Klebsiella pneumoniae Exp. 52 145; assay: MIC, liquid medium dilution; type: cell-based
Experimental: as §1

[3] = test system: Providencia Du 48; assay: MIC, liquid medium dilution; type: cell-based
Experimental: as §1

[4] = test system: Streptococcus pyogenes A 561; assay: MIC, liquid medium dilution; type: cell-based
Experimental: as §1

[5] = test system: Streptococcus faecalis 5 432; assay: MIC, liquid medium dilution; type: cell-based
Experimental: as §1

[6] = test system: Proteus vulgaris (indol+) A 232; assay: MIC, liquid medium dilution; type: cell-based
Experimental: as §1

[7] = test system: Staphylococcus aureus ATCC 6 538 Pen-Sensitive; assay: MIC, liquid medium dilution; type: cell-based
Experimental: as §1

[8] = test system: Streptococcus faecalis 99 F 74; assay: MIC, liquid medium dilution; type: cell-based; conditions: Enterococcus faecalis
Experimental: as §1

[9] = test system: Escherichia Coli Sensitive Tetracycline ATCC 9 637; assay: MIC, liquid medium dilution; type: cell-based
Experimental: as §1

[10] = test system: Staphylococcus aureus UC 1 128 Pen-Resistant; assay: MIC, liquid medium dilution; type: cell-based
Experimental: as §1

[11] = test system: Salmonella typhimurium 420; assay: MIC, liquid medium dilution; type: cell-based; conditions: Salmonella enterica
Experimental: as §1

[12] = test system: Klebsiella pneumoniae 2 536 Resistant Gentamicine; assay: MIC, liquid medium dilution; type: cell-based
Experimental: as §1

[13] = test system: Serratia Resistant Gentamicine 2 532; assay: MIC, liquid medium dilution; type: cell-based
Experimental: as §1

[14] = test system: Escherichia Coli Resistant Tetracycline ATCC 11 303; assay: MIC, liquid medium dilution; type: cell-based
Experimental: as §1

[15] = test system: Bacillus subtilis ATCC 6 633; assay: MIC, liquid medium dilution; type: cell-based
Experimental: as §1

[16] = test system: Staphylococcus aureus exp. n° 54 146; assay: MIC, liquid medium dilution; type: cell-based
Experimental: as §1

[17] = test system: Escherichia Coli Exp. TO26 B6; assay: MIC, liquid medium dilution; type: cell-based
Experimental: as §1

[18] = test system: Escherichia Coli Resistant Gentamicine, Tobramycine R 55 123 D; assay: MIC, liquid medium dilution; type: cell-based
Experimental: as §1

[19] = test system: Enterobacter cloacae 681; assay: MIC, liquid medium dilution; type: cell-based
Experimental: as §1

[20] = test system: Klebsiella pneumonia 52,145; assay: Experimental infection with Klebsiella pneumonia in mice (D); type: in vivo
Experimental: The activity of the products of Examples 19 and 21 was studied on an experimental infection of Klebsiella pneumonia in mice. Groups of 10 male mice weighing 21.5 g received intraperitoneally 0.5 ml of a 24 hour culture in nutritive media of Klebsiella pneumonia 52,145 diluted by 1/1000 with distilled water. The products were administered subcutaneously 1,5 and 24 hours after the injection and the number of dead mice were determined using 10th days.

[21] = Enterococcus faecalis, 5432, 24 h
[22] = Enterococcus faecalis, 5432, 48 h

CO/N=C(/C(=O)NC1C(=O)N2C(C(=O)O)=C(C)CS[C@H]12)c1csc(N)n1 (some centres unmarked) [Example 15, 7-[{2-(2-amino-4-thiazolyl)-2-methoxyiminoacetyl}amino]-3-methyl-ceph-3-eme-4-carboxylic acid]
MIC ([1]; 24 h, read-out: MIC): 20 µg/mL (≈ 50.3 µM)
MIC ([1]; 48 h, read-out: MIC): 40 µg/mL (≈ 101 µM)
MIC ([2]; EXP.52145, 24 h, read-out: MIC): 100 µg/mL (≈ 252 µM)
MIC ([2]; EXP.52145, 48 h, read-out: MIC): 100 µg/mL (≈ 252 µM)
MIC ([3]; DU48, 24 h): > 100 µg/mL
MIC ([3]; DU48, 48 h): > 100 µg/mL
MIC ([4]; A561, 24 h): 2 µg/mL (≈ 5.03 µM)
MIC ([4]; A561, 48 h): 3 µg/mL (≈ 7.55 µM)
MIC [5, 21]: > 100 µg/mL
MIC [5, 22]: > 100 µg/mL
MIC ([6]; 24 h): > 100 µg/mL
MIC ([6]; 48 h): > 100 µg/mL
MIC ([7]; ATCC6, 24 h): > 100 µg/mL
MIC ([7]; ATCC6, 48 h): > 100 µg/mL
MIC ([8]; 99F74, 24 h): > 100 µg/mL
MIC ([8]; 99F74, 48 h): > 100 µg/mL
MIC ([9]; ATCC9, 24 h): > 100 µg/mL
MIC ([9]; ATCC9, 48 h): > 100 µg/mL
MIC ([10]; UC1, 24 h): > 100 µg/mL
MIC ([10]; UC1, 48 h): > 100 µg/mL
MIC ([11]; 24 h): > 100 µg/mL
MIC ([11]; 48 h): > 100 µg/mL
MIC ([12]; 24 h): > 100 µg/mL
MIC ([12]; 48 h): > 100 µg/mL
MIC ([13]; 24 h): > 100 µg/mL
MIC ([13]; 48 h): > 100 µg/mL
MIC ([14]; ATCC11, 24 h): > 100 µg/mL
MIC ([14]; ATCC11, 48 h): > 100 µg/mL
MIC ([15]; ATCC6, 24 h): > 100 µg/mL
MIC ([15]; ATCC6, 48 h): > 100 µg/mL
MIC ([16]; 24 h): > 100 µg/mL
MIC ([16]; 48 h): > 100 µg/mL
MIC ([17]; 24 h): > 100 µg/mL
MIC ([17]; 48 h): > 100 µg/mL
MIC ([18]; 24 h): > 100 µg/mL
MIC ([18]; 48 h): > 100 µg/mL

CO/N=C(/C(=O)NC1C(=O)N2C(C(=O)O)=C(CSC(C)=O)CSC12)c1csc(N)n1 (centres unmarked) [Example 17, 3-acetylthiomethyl-7-[{2-(2-amino-4-thiazolyl)-2-methoxyiminoacetyl}amino]-ceph-3-eme-4-carboxylic acid]
MIC ([1]; 24 h): 5 µg/mL (≈ 10.6 µM)
MIC ([1]; 48 h): 40 µg/mL (≈ 84.8 µM)
MIC ([2]; EXP.52145, 24 h): 40 µg/mL (≈ 84.8 µM)
MIC ([2]; EXP.52145, 48 h): 40 µg/mL (≈ 84.8 µM)
MIC ([3]; DU48, 24 h): > 100 µg/mL
MIC ([3]; DU48, 48 h): > 100 µg/mL
MIC ([4]; A561, 24 h): 0.2 µg/mL (≈ 0.424 µM)
MIC ([4]; A561, 48 h): 0.2 µg/mL (≈ 0.424 µM)
MIC [5, 21]: > 100 µg/mL
MIC [5, 22]: > 100 µg/mL
MIC ([6]; 24 h): > 100 µg/mL
MIC ([6]; 48 h): > 100 µg/mL
MIC ([7]; ATCC6, 24 h): 20 µg/mL (≈ 42.4 µM)
MIC ([7]; ATCC6, 48 h): 20 µg/mL (≈ 42.4 µM)
MIC ([8]; 99F74, 24 h): > 100 µg/mL
MIC ([8]; 99F74, 48 h): > 100 µg/mL
MIC ([9]; ATCC9, 24 h): 40 µg/mL (≈ 84.8 µM)
MIC ([9]; ATCC9, 48 h): 40 µg/mL (≈ 84.8 µM)
MIC ([10]; UC1, 24 h): 40 µg/mL (≈ 84.8 µM)
MIC ([10]; UC1, 48 h): 100 µg/mL (≈ 212 µM)
MIC ([11]; 24 h): 40 µg/mL (≈ 84.8 µM)
MIC ([11]; 48 h): 40 µg/mL (≈ 84.8 µM)
MIC ([12]; 24 h): > 100 µg/mL
MIC ([12]; 48 h): > 100 µg/mL
MIC ([13]; 24 h): > 100 µg/mL
MIC ([13]; 48 h): > 100 µg/mL
MIC ([19]; Enterobacter cloacae, 681, 24 h): 40 µg/mL (≈ 84.8 µM)
MIC ([19]; Enterobacter cloacae, 681, 48 h): 100 µg/mL (≈ 212 µM)
MIC ([14]; ATCC11, 24 h): 5 µg/mL (≈ 10.6 µM)
MIC ([14]; ATCC11, 48 h): 5 µg/mL (≈ 10.6 µM)
MIC ([15]; ATCC6, 24 h): 5 µg/mL (≈ 10.6 µM)
MIC ([15]; ATCC6, 48 h): 20 µg/mL (≈ 42.4 µM)
MIC ([16]; 24 h): 40 µg/mL (≈ 84.8 µM)
MIC ([16]; 48 h): 40 µg/mL (≈ 84.8 µM)
MIC ([17]; 24 h): 20 µg/mL (≈ 42.4 µM)
MIC ([17]; 48 h): 40 µg/mL (≈ 84.8 µM)
MIC ([18]; 24 h): 40 µg/mL (≈ 84.8 µM)
MIC ([18]; 48 h): 40 µg/mL (≈ 84.8 µM)

CO/N=C(\C(=O)NC1C(=O)N2C(C(=O)O)=C(CSc3nnc(C)s3)CS[C@H]12)c1csc(N)n1 (some centres unmarked) [Example 19, sodium 7-[{2-(2-amino-4-thiazolyl)-2-methoxyiminoacetyl}amino]-3-[(2-methyl-1,3,4-thiadiazol-5-yl)-thiomethyl]-ceph-3-eme-4-carboxylate]
Mice alive on the 10th day ([20]; subcutaneous, 0,1 mg): 9/10
Mortality after 6eJ (number of dead of 10) ([20]; subcutaneous, 0,1 mg): 1
Mice alive on the 10th day ([20]; subcutaneous, 0,05 mg): 6/10
Mortality after 4eJ (number of dead of 10) ([20]; subcutaneous, 0,05 mg): 1
Mortality after 5eJ (number of dead of 10) ([20]; subcutaneous, 0,05 mg): 2
Mortality after 7eJ (number of dead of 10) ([20]; subcutaneous, 0,05 mg): 1
Mice alive on the 10th day ([20]; subcutaneous, 0,5 mg): 10/10
Mice alive on the 10th day ([20]; subcutaneous, 0,25 mg): 10/10
Mice alive on the 10th day ([20]; subcutaneous, 1 mg): 10/10
